One data set has as its system gram-positive bacteria. The data set is described as follows: anti-bacterial activity against gram-positive bacteria. Type of data set: cell-based.
Another data set relates to gram-negative bacteria. The data set is described as follows: anti-bacterial activity against gram-negative bacteria. Type of data set: cell-based.
Data set [1] can be described thus: toxicity compared to other lactams having anti-microbial activity.

For `C=C1NC(=O)C=C1c1ccc(Cl)cc1` [4-(4-chlorophenyl)-5-methylene-pyrrol-2-one], the “anti-bacterial activity against gram-positive bacteria” value in the data set on gram-positive bacteria is on record as “shows activity”. Moreover, in the data set on gram-negative bacteria, the “anti-bacterial activity against gram-negative bacteria” value is on record as “shows activity”. Besides, the toxicity entry in data set [1] is recorded as “unexpectedly low toxicity”.
Consider `C=C1NC(=O)C=C1c1ccc(C)cc1` [5-methylene-4-(p-tolyl)pyrrol-2-one], for which the “anti-bacterial activity against gram-negative bacteria” value in the data set with gram-negative bacteria is on record as “shows selective activity”. In addition, in data set [1], the toxicity entry is “unexpectedly low toxicity”.
